# Values of other authors, collected in article PMC6271933, “Evaluation of the Toxicity of 5-Aryl-2-Aminoimidazole-Based Biofilm Inhibitors against Eukaryotic Cell Lines, Bone Cells and the Nematode Caenorhabditis elegans” (Molecules, 2014).
# Columns and labels:
# [1] = test system: several tumor cell lines; design: method as in PMID 1783523, PMID 15133248; conditions: cited from earlier work
# [2] = test system: murine-grafted tumors, including P388 and L1210 leukemias, and solid tumors; design: method as in PMID 1783523, PMID 15133248; conditions: cited from earlier work
# [3] = test system: mouse ES cells; design: method as in PMID 2998604; conditions: by inhibiting matrix metalloproteinase 2; cited from earlier work
# [4] = test system: epidermal growth factor-stimulated DNA synthesis in squamous cell tumors; conditions: squamous cell tumors; cited from earlier work
# [5] = test system: A-431 cells; design: method as in PMID 9748366, PMID 12939464; conditions: cited from earlier work
smiles,measurement,setting,value
"NC[C@H](Cl)[C@@H](O)c1c[nH]c(N)n1 [2a, girolline]",cytotoxicity in vitro against several tumor cell lines,[1],significant cytotoxicity
same,cytotoxicity in vivo against murine-grafted tumors,[2],significant cytotoxicity
"Nc1nc2c(-c3cc(Br)c(Br)[nH]3)nccc2[nH]1 [2d, ageladine A]",angiogenesis in a model using mouse ES cells,[3],reduce angiogenesis
"COc1ccc(Cc2nc(NC3=NC(=O)N(C)C3=O)n(C)c2Cc2ccc(O)cc2)cc1 [2j, naamidine A]",inhibition of epidermal growth factor-stimulated DNA synthesis,[4],potently inhibit
same,cell cycle arrest of A-431 cells,[5],arrest in the G1 phase
